This is an account of results in patent US11141451B2, “Pharmaceutical composition and health functional food comprising oat extract avenanthramide C or derivative thereof as effective ingredient for prevention or treatment of neurodegenerative disease” (INDUSTRY FOUNDATION OF CHONNAM NATIONAL UNIVERSITY, priority 2016, dated 2021).

For data set [1], the system named is long-term potentiation (LTP) in hippocampal slice of Tg2576 induced AD mouse. Briefly: LTP induction in hippocampal slice of Tg2576 induced AD mouse. Type of data set: cell-based. Particulars: 7-month-old Tg2576 mouse hippocampal slice, 50 μM compound. The procedure:
(§1) The mice of Example 1 were anesthetized and decapitated to excise brains. The extracted brains were kept in a cooled artificial cerebrospinal fluid (aCSF) (124 mM NaCl, 3 mM KCl, 26 mM NaHCO3, 2 mM CaCl2, 1 mM MgSO4, 10 mM Glucose, 1.25 mM NaH2PO4, and 2 mM CaCl2) saturated with 95% oxygen. Hippocampal slices were sampled from the brains, and the hippocampal slice samples were prepared with a thickness of 400 μm. Then, the hippocampal slice samples were recovered in the aCSF (124 mM NaCl, 3 mM KCl, 26 mM NaHCO3, 2 mM CaCl2, 1 mM MgSO4, 10 mM Glucose, 1.25 mM NaH2PO4, and 2 mM CaCl2) saturated with 95% oxygen at a temperature of 22 to 25° C. for 1 hour, and then used in the experiment.
(§2) For LTP induction, the hippocampal slice samples were located in a recording chamber, respectively, and then were observed by analyzing a field excitatory postsynaptic potential (fEPSP) by stimulation of Schaffer-Collateral fiber, while applying stimulations to the samples with 100 Hz every 200 ms, and the experiment was performed for 90 minutes. During the experiment, the aCSF was supplied by flowing with a rate of 2 to 3 ml/min at 30° C., and the obtained experimental results were compared using the ANOVA test known in the art. The obtained results are illustrated in FIGS. 1 to 7.
In order to examine effects of avenanthramide C according to the present invention on the LTD in a hippocampal slice of a 7-month-old Tg2576 induced AD mouse, an LTP comparison experiment was performed using a hippocampal slice of a gene manipulated mouse in the same method as Experimental Example 1, and the results thereof are illustrated in FIGS. 12A and 12B.
In order to examine effects of avenanthramide B methyl ester according to the present invention on the LTD in a hippocampal slice of a 7-month-old Tg2576 induced AD mouse, an LTP comparison experiment was performed in the same method as Experimental Example 1 using a hippocampal slice of a gene manipulated mouse, and the results thereof are illustrated in FIGS. 16A and 16B. […]

Data set [2] relates to long-term potentiation (LTP) in hippocampal slice of 5×FAD induced AD mouse. Put plainly: LTP induction in hippocampal slice of 5×FAD induced AD mouse. The data set is classed as cell-based. The procedure:
as §1
For LTP induction, the hippocampal slice samples were located in a recording chamber, respectively, and then were observed by analyzing a field excitatory postsynaptic potential (fEPSP) by stimulation of Schaffer-Collateral fiber, while applying stimulations to the samples with 100 Hz every 200 ms, and the experiment was performed for 90 minutes. During the experiment, the aCSF was supplied by flowing with a rate of 2 to 3 ml/min at 30° C., and the obtained experimental results were compared using the ANOVA test known in the art. The obtained results are illustrated in FIGS. 1 to 7. […]

In data set [3] the test system is long-term potentiation (LTP) in hippocampal slice of C57BL/6 mouse. Briefly: LTP induction (fEPSP, Schaffer-Collateral stimulation) in hippocampal slices treated with amyloid-β. The data set is classed as cell-based. On the procedure: as §1, §2
In order to examine effects of avenanthramide C methyl ester according to the present invention on the LTD in a hippocampal slice of a mouse, an LTP comparison experiment was performed in the same method as Experimental Example 1, and the results thereof are illustrated in FIGS. 14A to 14C.
An LTP comparison experiment was performed by treating the samples with amyloid-β and β-glucan in amounts as illustrated in Table 2 below two hours before the experiment by using the same method as in Experimental Example 1, except that β-glucan was used instead of avenanthramide C according to the present invention. The obtained results are illustrated in FIGS. 18 to 21.

The subject of data set [4] is GSK3β. Briefly: GSK3β activity by western blotting (GSK3αβ and phosphorylated GSK3β S9) in hippocampal slices treated with amyloid-β. Type of data set: cell-based, mouse. The procedure:
as §1
Thereafter, RIPA [50 mM Tris-HCl (PH 7.5), 150 mM NaCl, 1% Nonidet P-40, 0.5% sodium deoxycholate, 0.1% SDS, 1 mM phenylmethylsulfonyl fluoride (PMSF), 1 mM DTT, and 2 μg of leupeptin and aprotinin, respectively, were dissolved therein. The crushed cells were centrifuged with 12,000 g at 4° C. for 20 minutes, and the resulting soluble fractions were denatured in a Laemmli buffer and subjected to sodium dodecyl sulfate-polyacrylamide gel electrophoresis (SDS-PAGE). After gel electrophoresis, the separated proteins were transferred to a polyvinylidene difluoride (PVDF) membrane using electroblotting. The membrane was blocked with AMRESCO, RAPIDBLOCK solution (pH 7) and subjected to blotting by using enhanced chemiluminescence (ECL). For blotting, an antibody for GSK3αβ and an antibody for phosphorylated GSK3β (S9) were used. The obtained results are illustrated in FIGS. 8 and 9. GSK3β is an enzyme whose activity is inhibited by the phosphorylation of serine residue 9, and is known as a modulator of a wide range of functions such as energy metabolism, cell proliferation, apoptosis and the like.
In order to examine effects of avenanthramide C methyl ester according to the present invention on activity of GSK3β in a hippocampal slice of a mouse, the same western blotting as Experimental Example 2 was performed, and the results thereof are illustrated in FIG. 15.
A general note: In western blotting, separated proteins are transferred to a membrane and probed.

Data set [5] has as its system GSK3β. Briefly: GSK3β activity by western blotting in hippocampal slice of 5×FAD induced AD mouse. The data set is classed as cell-based. Particulars: 4-month-old 5×FAD mouse hippocampal slice, 50 μM compound, versus untreated. The procedure:
as §1
(§3) Thereafter, RIPA [50 mM Tris-HCl (PH 7.5), 150 mM NaCl, 1% Nonidet P-40, 0.5% sodium deoxycholate, 0.1% SDS, 1 mM phenylmethylsulfonyl fluoride (PMSF), 1 mM DTT, and 2 μg of leupeptin and aprotinin, respectively, were dissolved therein. The crushed cells were centrifuged with 12,000 g at 4° C. for 20 minutes, and the resulting soluble fractions were denatured in a Laemmli buffer and subjected to sodium dodecyl sulfate-polyacrylamide gel electrophoresis (SDS-PAGE). After gel electrophoresis, the separated proteins were transferred to a polyvinylidene difluoride (PVDF) membrane using electroblotting. […]

The test system of data set [6] is GSK3β. Put plainly: GSK3β activity by western blotting in hippocampal slice of Tg2576 induced AD mouse. Type of data set: cell-based. Particulars: 7-month-old Tg2576 mouse hippocampal slice, 50 μM compound, versus untreated. The procedure:
as §1, §3

The mark [7] stands for this setting: hippocampal slice treated with 500 nM amyloid-β and 50 μM compound together.
[8] abbreviates: hippocampal slice treated with 500 nM amyloid-β and 500 μM compound together.

As for `O=C(/C=C/c1ccc(O)cc1)Nc1ccc(O)cc1C(=O)O` [avenanthramide A], in data set [1], the LTP induction entry was “induced”.

With β-glucan [reference compound], the LTP induction entry in data set [2] (induced AD mouse hippocampal slice, 80 μg/ml β-glucan) is given as “not induced”; in data set [3] (hippocampal slice treated with 500 nM amyloid-β and 80 μg/ml β-glucan together), “not induced”; in data set [3] (hippocampal slice treated with only 80 μg/ml β-glucan, no amyloid-β) it was “induced”.

On to `COc1cc(/C=C/C(=O)Nc2ccc(O)cc2C(=O)O)ccc1O` [avenanthramide B], for which, in data set [1], the LTP induction result is listed as “slightly induced”.

As for `COC(=O)c1cc(O)ccc1NC(=O)/C=C/c1ccc(O)c(O)c1` [avenanthramide C methyl ester], the “activity of GSK3β” value in data set [4] (setting [7]) is on record as “inhibited”. Also, in data set [3] (setting [7]), the LTP induction entry is “induced”.

In the case of `O=C(/C=C/c1ccc(O)c(O)c1)Nc1ccc(O)cc1C(=O)O` [avenanthramide C], the LTP induction result in data set [1] is recorded as “induced”; in data set [2] (4-month-old 5×FAD mouse hippocampal slice, 50 μM compound), “induced”; in data set [3] (hippocampal slice treated with 500 nM amyloid-β and 10 μM compound together), “not induced”; in data set [3] (setting [7]) it was “induced”; in data set [3] (setting [8]), “induced”; in data set [3] (hippocampal slice treated with only 50 μM compound, no amyloid-β), “induced”. In addition, the LTP induction entry in data set [3] (hippocampal slice treated with only 500 μM compound, no amyloid-β) is reported as “induced”. Moreover, the “toxicity in hippocampal slice (GSK3β experiment)” value in data set [4] (500 nM amyloid-β and 500 μM compound together) is listed as “without toxicity”. For the same compound, the “activity of GSK3β” value in data set [4] (setting [7]) was “inhibiting the activity of GSK3β”; in data set [4] (setting [8]) it was “inhibited”; in data set [5], “more inhibited”; in data set [6], “more inhibited”. For the same compound, the “toxicity in hippocampal slice (LTP experiment)” value in data set [3] (only 500 μM compound, no amyloid-β) was “not exhibiting toxicity”.
